Experimental data: ChEMBL document CHEMBL3351318, “Synthesis of novel 4-nitropyrrole-based semicarbazide and thiosemicarbazide hybrids with antimicrobial and anti-tubercular activity” (Bioorg Med Chem Lett, 2014)
Converted amounts (≈) assume the structure as drawn.

Experiments:
Escherichia coli [1] = assay: Antimicrobial activity against Escherichia coli ATCC 25922 after 48 hrs by broth dilution technique; type: functional; conditions: ATCC 25922, 48 h
Klebsiella pneumoniae = assay: Antimicrobial activity against Klebsiella pneumoniae after 48 hrs by broth dilution technique; type: functional
Staphylococcus aureus [2] = assay: Antimicrobial activity against methicillin-sensitive Staphylococcus aureus ATCC 35556 after 48 hrs by broth dilution technique; type: functional; conditions: ATCC 35556, 48 h
Staphylococcus aureus [3] = assay: Antimicrobial activity against methicillin-resistant Staphylococcus aureus ATCC 43866 after 48 hrs by broth dilution technique; type: functional; conditions: ATCC 43866, 48 h
Candida albicans [4] = assay: Antimicrobial activity against Candida albicans after 48 hrs by agar dilution method; type: functional
[5] = system: Mycobacterium tuberculosis; assay: Antitubercular activity against Mycobacterium tuberculosis H37Rv after 7 days by Resazurin micro titer assay; type: functional; conditions: 168 h
Vero = assay: Cytotoxicity against African green monkey Vero cells assessed as reduction in cell viability after 72 hrs by MTT assay; type: cell-based; conditions: Chlorocebus sabaeus
Candida albicans [6] = assay: Ratio of Amphotericin B MIC to compound MIC for Candida albicans after 48 hrs by broth dilution technique; type: functional
Staphylococcus aureus [7] = assay: Ratio of ciprofloxacin MIC to compound MIC for methicillin-resistant Staphylococcus aureus ATCC 43866 after 48 hrs by broth dilution technique; type: functional
Escherichia coli [8] = assay: Ratio of ciprofloxacin MIC to compound MIC for Escherichia coli ATCC 25922 after 48 hrs by broth dilution technique; type: functional

SMILES	MIC (Escherichia coli [1]) [µg/mL]	MIC (Klebsiella pneumoniae) [µg/mL]	MIC (Staphylococcus aureus [2]) [µg/mL]	MIC (Staphylococcus aureus [3]) [µg/mL]	MIC (Candida albicans [4]) [µg/mL]	MIC [5] [µg/mL]	IC50 (Vero) [µM]	Ratio (Candida albicans [6])	Ratio (Staphylococcus aureus [7])	Ratio (Escherichia coli [8])
O=C(NNC(=S)Nc1ccccc1F)c1cc([N+](=O)[O-])c[nH]1	1.56 (≈ 4.83 µM)	3.12 (≈ 9.67 µM)	1.56 (≈ 4.83 µM)	3.12 (≈ 9.67 µM)	3.12 (≈ 9.67 µM)	0.82 (≈ 2.54 µM)	471	4	–	–
Cn1cc([N+](=O)[O-])cc1C(=O)NNC(=O)Nc1ccc([N+](=O)[O-])cc1	1.56 (≈ 4.48 µM)	3.12 (≈ 8.97 µM)	1.56 (≈ 4.48 µM)	3.12 (≈ 8.97 µM)	1.56 (≈ 4.48 µM)	11.9 (≈ 34.2 µM)	402	2	–	–
COc1ccc(NC(=S)NNC(=O)c2cc([N+](=O)[O-])c[nH]2)cc1	1.56 (≈ 4.65 µM)	3.12 (≈ 9.32 µM)	1.56 (≈ 4.65 µM)	3.12 (≈ 9.32 µM)	3.12 (≈ 9.32 µM)	1.3 (≈ 3.88 µM)	331	4	–	–
Cn1cc([N+](=O)[O-])cc1C(=O)NNC(=O)Nc1ccc(Cl)cc1	1.56 (≈ 4.62 µM)	3.12 (≈ 9.25 µM)	1.56 (≈ 4.62 µM)	3.12 (≈ 9.25 µM)	1.56 (≈ 4.62 µM)	30.5 (≈ 90.3 µM)	290	2	–	–
C[C@@H]1[C@H](O)[C@@H](C)/C=C/C=C/C=C/C=C/C=C/C=C/C=C/[C@H](O[C@@H]2O[C@H](C)[C@@H](O)[C@H](N)[C@@H]2O)C[C@@H]2O[C@](O)(C[C@@H](O)C[C@@H](O)[C@H](O)CC[C@@H](O)C[C@@H](O)CC(=O)O[C@H]1C)C[C@H](O)[C@H]2C(=O)O [AMPHOTERICIN B]	–	–	–	–	3.12 (≈ 3.38 µM)	–	–	–	–	–
O=C(NNC(=S)NC1CCCCC1)c1cc([N+](=O)[O-])c[nH]1	1.56 (≈ 5.01 µM)	3.12 (≈ 10 µM)	1.56 (≈ 5.01 µM)	3.12 (≈ 10 µM)	3.12 (≈ 10 µM)	2.8 (≈ 8.99 µM)	204	4	–	–
O=C(NCCc1ccccc1)NNC(=O)c1cc([N+](=O)[O-])c[nH]1	6.25 (≈ 19.7 µM)	6.25 (≈ 19.7 µM)	3.12 (≈ 9.85 µM)	6.25 (≈ 19.7 µM)	3.12 (≈ 9.85 µM)	10.3 (≈ 32.5 µM)	220	–	–	–
O=C(NNC(=S)Nc1ccc([N+](=O)[O-])cc1)c1cc([N+](=O)[O-])c[nH]1	1.56 (≈ 4.45 µM)	3.12 (≈ 8.92 µM)	1.56 (≈ 4.45 µM)	3.12 (≈ 8.92 µM)	3.12 (≈ 8.92 µM)	0.5 (≈ 1.43 µM)	529	4	–	–
Cn1cc([N+](=O)[O-])cc1C(=O)NNC(=O)Nc1ccccc1	1.56 (≈ 5.14 µM)	3.12 (≈ 10.3 µM)	1.56 (≈ 5.14 µM)	3.12 (≈ 10.3 µM)	1.56 (≈ 5.14 µM)	59.2 (≈ 195 µM)	306	2	–	–
O=C(NCc1ccco1)NNC(=O)c1cc([N+](=O)[O-])c[nH]1	3.12 (≈ 10.7 µM)	3.12 (≈ 10.7 µM)	1.56 (≈ 5.32 µM)	3.12 (≈ 10.7 µM)	3.12 (≈ 10.7 µM)	0.92 (≈ 3.14 µM)	443	–	–	–
O=C(NNC(=O)c1cc([N+](=O)[O-])c[nH]1)Nc1ccc(Br)cc1	3.12 (≈ 8.49 µM)	3.12 (≈ 8.49 µM)	1.56 (≈ 4.24 µM)	3.12 (≈ 8.49 µM)	3.12 (≈ 8.49 µM)	1.1 (≈ 2.99 µM)	378	–	–	–
Cn1cc([N+](=O)[O-])cc1C(=O)NNC(=S)NCCc1ccccc1	0.78 (≈ 2.25 µM)	3.12 (≈ 9 µM)	0.39 (≈ 1.12 µM)	0.78 (≈ 2.25 µM)	0.78 (≈ 2.25 µM)	23 (≈ 66.2 µM)	404	4	–	–
O=C(NNC(=S)NCCc1ccccc1)c1cc([N+](=O)[O-])c[nH]1	3.12 (≈ 9.37 µM)	6.25 (≈ 18.7 µM)	1.56 (≈ 4.68 µM)	3.12 (≈ 9.37 µM)	3.12 (≈ 9.37 µM)	3.9 (≈ 11.7 µM)	281	4	–	–
Cn1cc([N+](=O)[O-])cc1C(=O)NNC(=S)NCc1ccccc1	1.56 (≈ 4.68 µM)	3.12 (≈ 9.37 µM)	0.78 (≈ 2.34 µM)	1.56 (≈ 4.68 µM)	1.56 (≈ 4.68 µM)	31.9 (≈ 95.7 µM)	239	2	4	–
O=C(NNC(=O)c1cc([N+](=O)[O-])c[nH]1)Nc1ccc([N+](=O)[O-])cc1	3.12 (≈ 9.35 µM)	3.12 (≈ 9.35 µM)	1.56 (≈ 4.67 µM)	3.12 (≈ 9.35 µM)	3.12 (≈ 9.35 µM)	0.8 (≈ 2.39 µM)	211	–	–	–
O=C(NNC(=S)Nc1ccc(F)cc1)c1cc([N+](=O)[O-])c[nH]1	1.56 (≈ 4.83 µM)	3.12 (≈ 9.67 µM)	1.56 (≈ 4.83 µM)	3.12 (≈ 9.67 µM)	3.12 (≈ 9.67 µM)	0.56 (≈ 1.73 µM)	331	4	–	–
COc1ccc(OC)c(NC(=O)NNC(=O)c2cc([N+](=O)[O-])cn2C)c1	1.56 (≈ 4.29 µM)	6.25 (≈ 17.2 µM)	3.12 (≈ 8.6 µM)	6.25 (≈ 17.2 µM)	1.56 (≈ 4.29 µM)	42.4 (≈ 117 µM)	429	2	–	–
Cn1cc([N+](=O)[O-])cc1C(=O)NNC(=O)Nc1ccc(Br)cc1	1.56 (≈ 4.08 µM)	3.12 (≈ 8.18 µM)	1.56 (≈ 4.08 µM)	3.12 (≈ 8.18 µM)	1.56 (≈ 4.08 µM)	7.8 (≈ 20.4 µM)	602	2	–	–

SMILES	MIC (Escherichia coli [1]) [µg/mL]	MIC (Klebsiella pneumoniae) [µg/mL]	MIC (Staphylococcus aureus [2]) [µg/mL]	MIC (Staphylococcus aureus [3]) [µg/mL]	MIC (Candida albicans [4]) [µg/mL]	MIC [5] [µg/mL]	IC50 (Vero) [µM]	Ratio (Candida albicans [6])	Ratio (Staphylococcus aureus [7])	Ratio (Escherichia coli [8])
O=C(O)c1cn(C2CC2)c2cc(N3CCNCC3)c(F)cc2c1=O [CIPROFLOXACIN]	–	1.56 (≈ 4.71 µM)	1.56 (≈ 4.71 µM)	3.12 (≈ 9.43 µM)	–	–	–	–	–	–
C=[N+]([O-])c1cc(C(=O)NNC(=O)NCc2ccccc2)n(C)c1	3.12 (≈ 9.91 µM)	3.12 (≈ 9.91 µM)	1.56 (≈ 4.95 µM)	3.12 (≈ 9.91 µM)	1.56 (≈ 4.95 µM)	51.9 (≈ 165 µM)	304	2	–	–
Cn1cc([N+](=O)[O-])cc1C(=O)NNC(=O)NC1CCCC1	1.56 (≈ 5.28 µM)	3.12 (≈ 10.6 µM)	1.56 (≈ 5.28 µM)	3.12 (≈ 10.6 µM)	1.56 (≈ 5.28 µM)	38.7 (≈ 131 µM)	271	2	–	–
COc1ccc(NC(=O)NNC(=O)c2cc([N+](=O)[O-])c[nH]2)cc1	3.12 (≈ 9.79 µM)	3.12 (≈ 9.79 µM)	1.56 (≈ 4.89 µM)	3.12 (≈ 9.79 µM)	3.12 (≈ 9.79 µM)	2.5 (≈ 7.83 µM)	401	–	–	–
O=C(NNC(=O)c1cc([N+](=O)[O-])c[nH]1)Nc1ccc(Cl)cc1	3.12 (≈ 9.65 µM)	3.12 (≈ 9.65 µM)	3.12 (≈ 9.65 µM)	6.25 (≈ 19.3 µM)	3.12 (≈ 9.65 µM)	2 (≈ 6.18 µM)	218	–	–	–
NNC(=O)c1ccncc1 [ISONIAZID]	–	–	–	–	–	0.4 (≈ 2.92 µM)	–	–	–	–
O=C(NNC(=S)Nc1ccc(Cl)cc1)c1cc([N+](=O)[O-])c[nH]1	1.56 (≈ 4.59 µM)	3.12 (≈ 9.2 µM)	1.56 (≈ 4.59 µM)	3.12 (≈ 9.2 µM)	3.12 (≈ 9.2 µM)	1.3 (≈ 3.83 µM)	191	4	–	–
COc1ccc(OC)c(NC(=O)NNC(=O)c2cc([N+](=O)[O-])c[nH]2)c1	3.12 (≈ 8.95 µM)	3.12 (≈ 8.95 µM)	1.56 (≈ 4.47 µM)	3.12 (≈ 8.95 µM)	3.12 (≈ 8.95 µM)	14.5 (≈ 41.5 µM)	333	–	–	–
O=C(NNC(=S)NCc1ccccc1)c1cc([N+](=O)[O-])c[nH]1	3.12 (≈ 9.79 µM)	6.25 (≈ 19.6 µM)	3.12 (≈ 9.79 µM)	6.25 (≈ 19.6 µM)	3.12 (≈ 9.79 µM)	7.3 (≈ 22.9 µM)	397	4	–	–
Cn1cc([N+](=O)[O-])cc1C(=O)NNC(=O)NCCc1ccccc1	3.12 (≈ 9.43 µM)	6.25 (≈ 18.9 µM)	1.56 (≈ 4.71 µM)	3.12 (≈ 9.43 µM)	1.56 (≈ 4.71 µM)	42.1 (≈ 127 µM)	633	2	–	–
Cn1cc([N+](=O)[O-])cc1C(=O)NNC(=O)NCc1ccco1	1.56 (≈ 5.08 µM)	3.12 (≈ 10.2 µM)	1.56 (≈ 5.08 µM)	3.12 (≈ 10.2 µM)	1.56 (≈ 5.08 µM)	17 (≈ 55.3 µM)	482	2	–	–
O=C(NNC(=O)c1cc([N+](=O)[O-])c[nH]1)Nc1ccccc1	3.12 (≈ 10.8 µM)	3.12 (≈ 10.8 µM)	1.56 (≈ 5.39 µM)	3.12 (≈ 10.8 µM)	3.12 (≈ 10.8 µM)	40.6 (≈ 140 µM)	357	–	–	–
O=C(NCc1ccccc1)NNC(=O)c1cc([N+](=O)[O-])c[nH]1	6.25 (≈ 20.6 µM)	6.25 (≈ 20.6 µM)	1.56 (≈ 5.14 µM)	3.12 (≈ 10.3 µM)	3.12 (≈ 10.3 µM)	15.2 (≈ 50.1 µM)	348	–	–	–
Cc1ccccc1NC(=S)NNC(=O)c1cc([N+](=O)[O-])c[nH]1	1.56 (≈ 4.88 µM)	3.12 (≈ 9.79 µM)	1.56 (≈ 4.88 µM)	3.12 (≈ 9.79 µM)	3.12 (≈ 9.79 µM)	0.67 (≈ 2.1 µM)	462	4	–	–
COc1cc(NC(=S)NNC(=O)c2cc([N+](=O)[O-])c[nH]2)cc(OC)c1OC	1.56 (≈ 3.95 µM)	3.12 (≈ 7.9 µM)	3.12 (≈ 7.9 µM)	6.25 (≈ 15.8 µM)	3.12 (≈ 7.9 µM)	2.7 (≈ 6.83 µM)	328	4	–	–
COc1ccc(NC(=O)NNC(=O)c2cc([N+](=O)[O-])cn2C)cc1	1.56 (≈ 4.68 µM)	3.12 (≈ 9.38 µM)	1.56 (≈ 4.68 µM)	3.12 (≈ 9.38 µM)	1.56 (≈ 4.68 µM)	26.1 (≈ 78.3 µM)	328	2	–	–
O=C(NNC(=O)c1cc([N+](=O)[O-])c[nH]1)NC1CCCC1	3.12 (≈ 11.1 µM)	3.12 (≈ 11.1 µM)	1.56 (≈ 5.55 µM)	3.12 (≈ 11.1 µM)	3.12 (≈ 11.1 µM)	12.5 (≈ 44.4 µM)	231	–	–	–
COc1cc(NC(=S)NNC(=O)c2cc([N+](=O)[O-])cn2C)cc(OC)c1OC	0.39 (≈ 0.953 µM)	1.56 (≈ 3.81 µM)	0.78 (≈ 1.91 µM)	1.56 (≈ 3.81 µM)	0.78 (≈ 1.91 µM)	21.5 (≈ 52.5 µM)	392	4	–	4
